# Results reported in patent US12215140B2, “Method of stabilizing protein contained in specimen and solution for stabilizing protein contained in specimen” (EIKEN KAGAKU KABUSHIKI KAISHA, priority 2018, dated 2025).
# Tested on: hemoglobin-haptoglobin complex
# Test: Stability of hemoglobin (as hemoglobin-haptoglobin complex) in samples preserved at 37° C. in preservation solution containing 1 unit/L haptoglobin, Hb measured by latex agglutination method (Examples 1 to 7)
# Design: species or system human
# Conditions: arylboronic acid 15 mmol/L
# Description: Preservation solutions were prepared with the addition of 40 mmol/L HEPES (pH 6.8), 0.1% BSA, 0.1% NaN3, 1 unit/L haptoglobin, and 0 to 100 mmol/L phenylboronic acid. Samples obtained by adding hemoglobin-added fecal specimens to the preservation solutions so that the fecal concentration would be 0.5% were preserved at 37° C. for 0, 7, 14, and 21 days. The fecal specimens were added with hemoglobin having an amount such that the hemoglobin concentration in the samples would be about 300 μg/L. Instead of the fecal specimens to which hemoglobin was added, samples containing no fecal specimens, in which hemoglobin was added to the preservation solutions so that the hemoglobin concentration in the samples would be 300 μg/L, were similarly preserved. The hemoglobin (Hb) concentrations (μg/L) in the preserved samples were measured by the latex agglutination method.
# The concentrations of hemoglobin were measured using “OC-Hemodia (registered trademark) Auto III ‘EIKEN’” (available from EIKEN CHEMICAL CO., LTD.) as a measurement reagent and “OC-sensor DIANA” (available from EIKEN CHEMICAL CO., LTD.) as a measurement device. The above measurement reagent contains latex particles immobilizing an anti-human hemoglobin rabbit polyclonal antibody.
# From the measured concentrations of hemoglobin, the recovery ratios (%) were calculated with respect to the hemoglobin concentrations immediately after the fecal specimens were added to the preservation solutions (i.e., concentrations 0 days after the fecal specimens were added).
# (§1) For comparative examples, preservation solutions to which no arylboronic acid was added were prepared, and testing was conducted in the same manner.
# The concentration of phenylboronic acid in the preservation solutions of Example 1 was fixed to 15 mmol/L, preservation solutions to which a sugar (sorbitol, sucrose, trehalose, glucose, fructose, or mannitol) was further added at 50 mmol/L or 100 mmol/L or preservation solutions to which no sugar was added were prepared, and testing was conducted in the same manner as in Example 1. For comparative examples, preservation solutions to which the phenylboronic acid and sugar were not added were prepared, and testing was conducted in the same manner.
# Preservation solutions in which sorbitol, sucrose, trehalose, glucose, fructose, or mannitol was added at 100 mmol/L to the preservation solutions of Example 1 containing no phenylboronic acid were prepared, and testing was conducted in the same manner as in Example 1. For comparison, the same testing was conducted without adding these sugars.
# The concentration of phenylboronic acid in the preservation solutions of Example 1 was fixed to 15 mmol/L, preservation solutions to which sorbitol was added at 10 to 500 mmol/L or sucrose was added at 10 to 250 mmol/L or preservation solutions to which no sugar was added were prepared, and testing was conducted in the same manner as in Example 1. For comparative examples, preservation solutions to which the phenylboronic acid and sugar were not added were prepared, and testing was conducted in the same manner.
# as §1
# [1] = Feces 1, sugar (if added) 100 mmol/L, 0 days at 37° C.
# [2] = Feces 1, sugar (if added) 100 mmol/L, 7 days at 37° C.
# [3] = Feces 1, sugar (if added) 100 mmol/L, 14 days at 37° C.
# [4] = Feces 2, sugar (if added) 100 mmol/L, 0 days at 37° C.
# [5] = Feces 2, sugar (if added) 100 mmol/L, 7 days at 37° C.
# [6] = Feces 2, sugar (if added) 100 mmol/L, 14 days at 37° C.
# [7] = Feces 3, sugar (if added) 100 mmol/L, 0 days at 37° C.
# [8] = Feces 3, sugar (if added) 100 mmol/L, 7 days at 37° C.
# [9] = Feces 3, sugar (if added) 100 mmol/L, 14 days at 37° C.
# [10] = No feces, sugar (if added) 100 mmol/L, 0 days at 37° C.
# [11] = No feces, sugar (if added) 100 mmol/L, 7 days at 37° C.
# [12] = No feces, sugar (if added) 100 mmol/L, 14 days at 37° C.
structure (smiles),measurement,setting,value
"O=C(O)c1cccc(B(O)O)c1 [3C-PBA, 3-carboxyphenylboronic acid]",Hb concentration,[1],309 µg/L
same,Recovery ratio with respect to Hb after 0 days,[1],100%
same,Hb concentration,[2],249 µg/L
same,Recovery ratio with respect to Hb after 0 days,[2],81%
same,Hb concentration,[3],239 µg/L
same,Recovery ratio with respect to Hb after 0 days,[3],77%
same,Hb concentration,"Feces 1, 37° C., 0 days",309 µg/L
same,Recovery ratio with respect to Hb after 0 days,"Feces 1, 37° C., 0 days",100%
same,Hb concentration,"Feces 1, 37° C., 7 days",249 µg/L
same,Recovery ratio with respect to Hb after 0 days,"Feces 1, 37° C., 7 days",81%
same,Hb concentration,"Feces 1, 37° C., 14 days",239 µg/L
same,Recovery ratio with respect to Hb after 0 days,"Feces 1, 37° C., 14 days",77%
same,Hb concentration,[4],309 µg/L
same,Recovery ratio with respect to Hb after 0 days,[4],100%
same,Hb concentration,[5],264 µg/L
same,Recovery ratio with respect to Hb after 0 days,[5],85%
same,Hb concentration,[6],240 µg/L
same,Recovery ratio with respect to Hb after 0 days,[6],78%
same,Hb concentration,"Feces 2, 37° C., 0 days",309 µg/L
same,Recovery ratio with respect to Hb after 0 days,"Feces 2, 37° C., 0 days",100%
same,Hb concentration,"Feces 2, 37° C., 7 days",264 µg/L
same,Recovery ratio with respect to Hb after 0 days,"Feces 2, 37° C., 7 days",85%
same,Hb concentration,"Feces 2, 37° C., 14 days",240 µg/L
same,Recovery ratio with respect to Hb after 0 days,"Feces 2, 37° C., 14 days",78%
same,Hb concentration,[7],300 µg/L
same,Recovery ratio with respect to Hb after 0 days,[7],100%
same,Hb concentration,[8],213 µg/L
same,Recovery ratio with respect to Hb after 0 days,[8],71%
same,Hb concentration,[9],200 µg/L
same,Recovery ratio with respect to Hb after 0 days,[9],67%
same,Hb concentration,"Feces 3, 37° C., 0 days",300 µg/L
same,Recovery ratio with respect to Hb after 0 days,"Feces 3, 37° C., 0 days",100%
same,Hb concentration,"Feces 3, 37° C., 7 days",213 µg/L
same,Recovery ratio with respect to Hb after 0 days,"Feces 3, 37° C., 7 days",71%
same,Hb concentration,"Feces 3, 37° C., 14 days",200 µg/L
same,Recovery ratio with respect to Hb after 0 days,"Feces 3, 37° C., 14 days",67%
same,Hb concentration,[10],293 µg/L
same,Recovery ratio with respect to Hb after 0 days,[10],100%
same,Hb concentration,[11],281 µg/L
same,Recovery ratio with respect to Hb after 0 days,[11],96%
same,Hb concentration,[12],276 µg/L
same,Recovery ratio with respect to Hb after 0 days,[12],94%
same,Hb concentration,"No feces, 37° C., 0 days",293 µg/L
same,Recovery ratio with respect to Hb after 0 days,"No feces, 37° C., 0 days",100%
same,Hb concentration,"No feces, 37° C., 7 days",281 µg/L
same,Recovery ratio with respect to Hb after 0 days,"No feces, 37° C., 7 days",96%
same,Hb concentration,"No feces, 37° C., 14 days",276 µg/L
same,Recovery ratio with respect to Hb after 0 days,"No feces, 37° C., 14 days",94%
"OB(O)c1cccc(O)c1 [3H-PBA, 3-hydroxyphenylboronic acid]",Hb concentration,[1],327 µg/L
same,Recovery ratio with respect to Hb after 0 days,[1],100%
same,Hb concentration,[2],269 µg/L
same,Recovery ratio with respect to Hb after 0 days,[2],82%
same,Hb concentration,[3],268 µg/L
same,Recovery ratio with respect to Hb after 0 days,[3],82%
same,Hb concentration,"Feces 1, 37° C., 0 days",327 µg/L
same,Recovery ratio with respect to Hb after 0 days,"Feces 1, 37° C., 0 days",100%
same,Hb concentration,"Feces 1, 37° C., 7 days",269 µg/L
same,Recovery ratio with respect to Hb after 0 days,"Feces 1, 37° C., 7 days",82%
same,Hb concentration,"Feces 1, 37° C., 14 days",268 µg/L
same,Recovery ratio with respect to Hb after 0 days,"Feces 1, 37° C., 14 days",82%
same,Hb concentration,[4],326 µg/L
same,Recovery ratio with respect to Hb after 0 days,[4],100%
same,Hb concentration,[5],277 µg/L
same,Recovery ratio with respect to Hb after 0 days,[5],85%
same,Hb concentration,[6],264 µg/L
same,Recovery ratio with respect to Hb after 0 days,[6],81%
same,Hb concentration,"Feces 2, 37° C., 0 days",326 µg/L
same,Recovery ratio with respect to Hb after 0 days,"Feces 2, 37° C., 0 days",100%
same,Hb concentration,"Feces 2, 37° C., 7 days",227 µg/L
same,Recovery ratio with respect to Hb after 0 days,"Feces 2, 37° C., 7 days",85%
same,Hb concentration,"Feces 2, 37° C., 14 days",264 µg/L
same,Recovery ratio with respect to Hb after 0 days,"Feces 2, 37° C., 14 days",81%
same,Hb concentration,[7],313 µg/L
same,Recovery ratio with respect to Hb after 0 days,[7],100%
same,Hb concentration,[8],213 µg/L
same,Recovery ratio with respect to Hb after 0 days,[8],68%
same,Hb concentration,[9],206 µg/L
same,Recovery ratio with respect to Hb after 0 days,[9],66%
same,Hb concentration,"Feces 3, 37° C., 0 days",313 µg/L
same,Recovery ratio with respect to Hb after 0 days,"Feces 3, 37° C., 0 days",100%
same,Hb concentration,"Feces 3, 37° C., 7 days",213 µg/L
same,Recovery ratio with respect to Hb after 0 days,"Feces 3, 37° C., 7 days",68%
same,Hb concentration,"Feces 3, 37° C., 14 days",206 µg/L
same,Recovery ratio with respect to Hb after 0 days,"Feces 3, 37° C., 14 days",66%
same,Hb concentration,[10],303 µg/L
same,Recovery ratio with respect to Hb after 0 days,[10],100%
same,Hb concentration,[11],294 µg/L
same,Recovery ratio with respect to Hb after 0 days,[11],97%
same,Hb concentration,[12],296 µg/L
same,Recovery ratio with respect to Hb after 0 days,[12],98%
same,Hb concentration,"No feces, 37° C., 0 days",303 µg/L
same,Recovery ratio with respect to Hb after 0 days,"No feces, 37° C., 0 days",100%
same,Hb concentration,"No feces, 37° C., 7 days",294 µg/L
same,Recovery ratio with respect to Hb after 0 days,"No feces, 37° C., 7 days",97%
same,Hb concentration,"No feces, 37° C., 14 days",296 µg/L
same,Recovery ratio with respect to Hb after 0 days,"No feces, 37° C., 14 days",98%
